Laboratory results published in patent EP1053750A1, “Use of proteasome-inhibitor for the induction of programmed cell death (apoptosis)” (Max-Planck-Gesellschaft zur Förderung der Wissenschaften …, priority 1999, dated 2000).
Peptide text beside a SMILES is read from it. * marks the point of attachment. Cbz = O=C(OCc1ccccc1)*; OtBu = CC(C)(C)O*

Key:
BAE cells = assay: Viability assay (MIT assay), BAE cells; type: cell-based, bovine; details: for EC50: Bos taurus
HUE cells [1] = assay: Viability assay (MIT assay), HUE cells; type: cell-based, human; details: for EC50: Homo sapiens, 48 h, 48 h incubation
[2] = tested on: chorioallantoic membrane (CAM); assay: Chorioallantoic membrane (CAM) assay; type: in vivo, chick embryo; details: for %CAMs with non-perfused areas: Luconyl Blue injection, positive/total CAMs in parenthesis
Description: All experiments with chick embryos were performed in ovo. After aspiration of 2 ml of eggwhite from the pointed side of the egg, a window was cut into the eggshell on embryonic day 3 or 4 (E3, E4). The eggs were resealed with tape and further incubated until E9. […] Approximately 1 cm^2-pieces of the CAM were then cut out, washed in PBS and fixed in Carnoy's solution. After dehydration and embedding in paraffin, 8 µm sections were cut and stained with an anti-BrdU mouse monoclonal antibody (Boehringer Mannheim, Germany) according to the manufacturer's instructions. Counterstaining of the sections was performed with Gill's hematoxylin (Serva, Heidelberg, Germany). Sections were mounted using Aquamount (Merck, Darmstadt, Germany) and photos were taken with a Zeiss Axiophot microscope. […] Control pellets were prepared with an equal amount of Leupeptin or with DMSO as vehicle, respectively. To aid in the visualization of the vascular system, embryos and CAMs were then injected using pulled glass capillaries with 10% Luconyl Blue (BASF, Ludwigshafen, Germany) in PBS, and photographs were taken using a stereomicroscope with camera adapter.
In eight eggs the windows of the egg shells were enlarged under an operation microscope. After a peripheral incision in the CAM was made, the main artery was incised with a pair of ocular scissors, and a glass capillary (World Precision Instruments, Inc. Germany) pulled to the adequate diameter, was inserted and sealed with a drop of cyanoacrylate (Loctite®). Efflux was enabled by making another incision into a main draining vessel. The vascular system was flushed with up to 5 ml of prewarmed (37 -39°C) physiological saline (0.9% NaCI) under mechanically controlled pressure. […] After complete polymerization of the casting solution, the membranes were dissected and macerated in a solution of 5% potassium hydroxide (Fluka, Neu-Ulm, Germany) at 40°C for 1 - 2 days. The resulting corrosion casts of all specimens were freeze dried, mounted and sputter coated. Examination of the microvascular corrosion casts were carried out with a Stereoscan Mk-250 scanning electron microscope (Cambridge, England). Alternatively, in situ fixed CAM segments were cut out, processed for semi-thin sectioning and stained with methylene blue and Azur II. Selected specimens were trimmed for ultrathin sectioning, and counterstained with uranyl acetate and lead citrate.

caspase-3 like activity = assay: Caspase activity in lysates of treated HUE cells, substrate Ac-DEVD-AMC; type: cell-based, human; details: HUE cell lysates, 50 µM
Description: Subconfluent endothelial cells were incubated with the inhibitors for the indicated times, lysed and caspase activities determined using Ac-DEVD-AMC for caspase-3-like enzymes and Ac-YVAD-AMC for caspase-1-like activities as described in the Material and Methods section (PSI, filled circles; LLnM, open square; E64, open triangles; Leupeptin, filled triangles; Pepstatin, filled squares). The specific caspase activities are shown as pmol of substrate hydrolyzed/min per µg of protein.
HUE cells (8 x 10^5) were plated onto 10 cm plastic dishes, allowed to attach overnight, and inhibitors were added to a final concentration of 50 µM for the times indicated in Fig. 4. DMSO, which served as the vehicle, was added to a final concentration of 0.1%. Floating and adherent cells were then harvested, lysed in Buffer I (1% Triton X100, 10 mM KCl, 20 mM HEPES pH 7.4, 1.5 mM MgCl2, 0.2 mM EGTA, 1 mM PMSF), snap frozen in liquid nitrogen and stored at -80°C until required. Lysates were centrifuged at 13000 g for 5 min at 4°C, the supernatants collected and protein concentrations determined using the BCA assay. […] Specific activity was expressed as pmol AMC liberated per min and per µg protein in comparison to a standard curve calculated from the amount of free AMC (SIGMA, Deisenhofen, Germany).

caspase-1 like activity = assay: Caspase activity in lysates of treated HUE cells, substrate Ac-YVAD-AMC; type: cell-based, human; details: HUE cell lysates, 50 µM, throughout the time course
Description: Detection of a caspase-3-like activity in lysates of PSI-treated HUE cells. […] The specific caspase activities are shown as pmol of substrate hydrolyzed/min per µg of protein.
HUE cells (8 x 10^5) were plated onto 10 cm plastic dishes, allowed to attach overnight, and inhibitors were added to a final concentration of 50 µM for the times indicated in Fig. 4. DMSO, which served as the vehicle, was added to a final concentration of 0.1%. Floating and adherent cells were then harvested, lysed in Buffer I (1% Triton X100, 10 mM KCl, 20 mM HEPES pH 7.4, 1.5 mM MgCl2, 0.2 mM EGTA, 1 mM PMSF), snap frozen in liquid nitrogen and stored at -80°C until required. Lysates were centrifuged at 13000 g for 5 min at 4°C, the supernatants collected and protein concentrations determined using the BCA assay. A 40 µl aliquot of each sample was assayed in the presence of 20 µM Ac-DEVD-AMC or Ac-YVAD-AMC substrates (Bachem, Heidelberg, Germany) in Buffer II (50 mM PIPES-KOH pH 7.0, 0.1 mM EDTA, 1 mM DTT, 10% glycerol; total volume 250 µl) for 40 min at 37°C and the fluorescence intensity was measured with an excitation wavelength of 350 nm and emission wavelength of 430 nm. […] Specific activity was expressed as pmol AMC liberated per min and per µg protein in comparison to a standard curve calculated from the amount of free AMC (SIGMA, Deisenhofen, Germany).

[3] = tested on: subconfluent primary BAE cells; assay: Apoptotic morphology (phase contrast, Hoechst 33342), BAE cells; type: cell-based, bovine; details: subconfluent BAE cells; 50 µM for 15 - 24 h, or 10 µM after 48 hours
HUE cells [4] = assay: Apoptotic morphology (phase contrast, Hoechst 33342), HUE cells; type: cell-based, human; details: subconfluent HUE cells, 50 µM, 18 - 24 hours
Description: Phase contrast pictures are shown on the left, and identical areas which display the nuclear morphology after Hoechst staining are shown on the right. Arrowheads point at nuclei with apoptotic morphology. Scale bars are 50 µm.
Primary bovine aortic endothelial cells (BAE) were isolated from bovine pulmonary aorta according to the method of Schwartz (In Vitro 14 (1978), 966 - 980) and maintained in MDCB131 medium supplemented with 8% fetal calf serum (FCS), penicillin (100 lU/ml) and streptomycin (100 µg/ml) at 5% CO2. Human umbilical vein endothelial cells (HUE), an immortalized human umbilical vein endothelial cell line (ATCC CRL-1730) were cultured under the same conditions. Madin Darby canine kidney epithelial cells (MDCK; ATCC CLL-34) were grown in Dulbecco's Modified Eagle's Medium (DMEM) containing 10% FCS, penicillin and streptomycin.

`CC[C@H](C)[C@H](NC(=O)OCc1ccccc1)C(=O)N[C@@H](CCC(=O)OC(C)(C)C)C(=O)N[C@@H](C)C(=O)N[C@H](C=O)CC(C)C` [PSI, carbobenzoxy-L-isoleucyl-y-t-butyl-L-glutamyl-L-alanyl-L-leucinal] (Cbz-IE(OtBu)AL-aldehyde) gave a x difference (BAE cells; BAE, EC50 confluent versus subconfluent, 2880 min) of 340 fold, an EC50 (BAE cells; 96 h, BAE cells seeded at high density, grown to confluency for 4 days) of 8.15 µM and an EC50 (BAE cells; BAE, con (grown to confluency for 4 days), 48 h incubation) of 8.15 µM. The EC50 (BAE cells; BAE, sub (low density, subconfluent), 48 h incubation, viability reduced to 50% of DMSO control) was 0.024 µM, the x difference (HUE cells [1]; EC50 confluent versus subconfluent, 2880 min) was 1119 fold and the EC50 (HUE cells [1]; con (grown to confluency)) was 7.83 µM. For the same compound, the EC50 (HUE cells [1]; sub (low density, subconfluent)) was 0.007 µM, the “%CAMs with non-perfused areas” value ([2]; 0.31 µg/disc, methylcellulose disc on CAM for 48 h) was 0(0/10) % and the “%CAMs with non-perfused areas” value ([2]; 1.0 µg/disc, methylcellulose disc on CAM for 48 h) was 56.3 (18/32) %. For the same compound, the “%CAMs with non-perfused areas” value ([2]; 3.1 µg/disc, methylcellulose disc on CAM for 48 h) was 85.7 (12/14) %, the “densities of the capillary plexus and first order vessels (corrosion casts)” value ([2]; CAM area directly under the disc) was “rarified” and the “TUNEL labeling of cell nuclei in CAM sections” value ([2]; methylcellulose disc on CAM for 48 h, cells in close contact with the disc) was “Intense labeling”. For the same compound, the “time of maximum of Ac-DEVD-AMC cleavage” value (caspase-3 like activity) was 15 h, the caspase-1 like activity (caspase-1 like activity) was “could not be detected” and the “morphological changes associated with programmed cell death” value [3] was “cytoplasmic shrinkage and bleb formation as well as extensive nuclear condensation and fragmentation”. For the same compound, the “induction of apoptosis (nuclear morphology)” value (HUE cells [4]) was “Induction of apoptosis”.
